This is an account of results in patent publication US20090169494A1, “Sunscreen cosmetic composition” (Shiseido Company Ltd, priority 2005, published 2009).

This data set in a line: Solubility of the triazine UV absorbent in oil components A-E. It counts as physicochemical. As to conditions: dissolved at 80° C., three days stirring at 0° C., supernatant absorbance at 342.8 nm; FIG. 1. On the procedure: Solubility of 2,4-bis[[4-(2-ethylhexyloxy)-2-hydroxy]phenyl]-6-(4-methoxyphenyl)-1,3,5-triazine in the following oil components A-E was measured.
2,4-bis[[4-(2-ethylhexyloxy)-2-hydroxy]phenyl]-6-(4-methoxyphenyl)-1,3,5-triazine is heated and dissolved at 80° C. in each of the aforementioned oil components A-E. After the temperature naturally cools down to room temperature, a small amount of 2,4-bis[[4-(2-ethylhexyloxy)-2-hydroxy]phenyl]-6-(4-methoxyphenyl)-1,3,5-triazine in powder form is added, followed by three days of stirring and cooling (stirrer) at 0° C. After this, the supernatant solution is quickly sampled before the temperature rises and 30 mg (actual measurement) of it is diluted to 100 mL of ethyl acetate. The absorbance at 342.8 nm of the obtained diluted solution is measured. The obtained absorbance is plotted against a previously prepared calibration curve to determine the solubility.

As for `CCCCC(CC)COc1ccc(-n2nc3ccccc3n2)c(O)c1` (centres unmarked) [Oil component D, 2-[4-(2-ethylhexyloxy)-2-hydroxyphenyl]-2H-benzotriazole], the “Solubility of 2,4-bis[[4-(2-ethylhexyloxy)-2-hydroxy]phenyl]-6-(4-methoxyphenyl)-1,3,5-triazine in the oil component” value was “particularly good”.

Regarding `CC(C)COc1ccc(-n2nc3ccccc3n2)c(O)c1` [Oil component E, 2-(2-hydroxy-4-isobutoxyphenyl)-2H-benzotriazole], the “Solubility of 2,4-bis[[4-(2-ethylhexyloxy)-2-hydroxy]phenyl]-6-(4-methoxyphenyl)-1,3,5-triazine in the oil component” value is reported as “particularly good”.
